Experimental findings from US12269831B2, “Modulators of cystic fibrosis transmembrane conductance regulator” (Vertex Pharmaceuticals Incorporated, priority 2020, dated 2025) are described below.

SMILES strings stand for the structures. Where two headings read alike, the source gives them in different places.

The conditions of the data set: rcm bond, 14-membered ring, DCE.

`CC(C)(C)OC(=O)N(C(=O)OC(C)(C)C)c1cc(C(F)(F)F)c2nc1-c1nnc(o1)[C@@](OCc1ccccc1)(C(F)(F)F)CCC=CC[C@H](COCc1ccccc1)O2` (mixture of isomers) registered a ring closure, isolated yield (from C=CCC[C@@](OCc1ccccc1)(c1nnc(-c2nc(O[C@H](CC=C)COCc3ccccc3)c(C(F)(F)F)cc2N(C(=O)OC(C)(C)C)C(=O)OC(C)(C)C)o1)C(F)(F)F, Zhan-1B, 3.72 mM, 60.0 °C, 2.5 h) of 46%.
Regarding `CC(C)(C)OC(=O)Nc1cc(C(F)(F)F)c2nc1-c1nnc(o1)C(OCc1ccccc1)(C(F)(F)F)CC=CCc1ccccc1O2` (mixture of isomers), the ring closure, isolated yield (from C=CCc1ccccc1Oc1nc(-c2nnc(C(CC=C)(OCc3ccccc3)C(F)(F)F)o2)c(NC(=O)OC(C)(C)C)cc1C(F)(F)F, Grubbs II, 5.12 mM, 70.0 °C, 21.0 h) worked out at 62%.
For `C[C@@H]1CC=CCC[C@](OCc2ccccc2)(C(F)(F)F)C2=NN=C(O2)c2nc(c(C(F)(F)F)cc2Cl)O1` (mixture of isomers), under “from C=CCC[C@@](OCc1ccccc1)(c1nnc(-c2nc(O[C@H](C)CC=C)c(C(F)(F)F)cc2Br)o1)C(F)(F)F, Zhan-1B, 2.2 mM, 60.0 °C, 2.0 h”, the ring closure, isolated yield was 47%.
Turning to `C[C@@H]1CC=CCC[C@](OCc2ccccc2)(C(F)(F)F)C2=NN=C(O2)c2nc(c(C(F)F)cc2NC(=O)OC(C)(C)C)O1` (mixture of isomers), the ring closure, isolated yield (from C=CCC[C@@](OCc1ccccc1)(c1nnc(-c2nc(O[C@H](C)CC=C)c(C(F)F)cc2NC(=O)OC(C)(C)C)o1)C(F)(F)F, Zhan-1B, 3.0 mM, 60.0 °C, 2.0 h) came to 26%.
As for `C[C@@H]1CC=CCc2cn(Cc3ccccc3)nc2C2=NN=C(O2)c2nc(c(C(F)(F)F)cc2NC(=O)OC(C)(C)C)O1` (mixture of isomers), the ring closure, isolated yield (from C=CCc1cn(Cc2ccccc2)nc1-c1nnc(-c2nc(O[C@H](C)CC=C)c(C(F)(F)F)cc2NC(=O)OC(C)(C)C)o1, Zhan-1B, 2.9 mM, 70.0 °C, 2.0 h) was determined as 37%.
